Patent US20200270588A1, “GLUCOSYL TRANSFERASE POLYPEPTIDES AND METHODS OF USE” (Syngenta Participations AG, priority 2017, published 2020)

Experiments:
[1] = tested on: Larkspur bx glucosyl transferase (SEQ ID NO 10); experiment: UDP-Glo glucosyl transferase assay, purified enzyme; assay type: biochemical; conditions: 1 mM herbicide V
Description: Glucosyl transferase activity is assayed via measurement of acceptor substrate-dependent production of UDP from ultrapure UDP-glucose using the Promega UDP-Glo™ method and according to the manufacturer's instructions. Assays are run in 96 well microtiter plates.
Enzyme, typically at a stock concentration of ˜2 mg/ml is diluted to an appropriate concentration in 50 mM K^+ Hepes buffer at pH7.5 containing 0.5 mg/mL bovine serum albumin (BSA) and 5 ul aliquots of this diluted enzyme added to each well of a Perkin Elmer white ½ area 96 well plate. […] Assays are run for an appropriate time (usually 10 to 60 min) so that the amount of UDP formed lies within the most nearly linear part of the UDP standard curve and are stopped with the addition and mixing of 25 ul UDP-Glo™ detection reagent (prepared as described below). Plates are then incubated at room temperature for 60 minutes and then read in a luminescence plate reader (Perkin Elmer Envision 2130 Multilabel Reader). A UDP standard curve is run alongside each set of assays and reagent blank control assays run with DMSO in place of test herbicide. Typically, 300 pmol of UDP corresponds to a Relative Luminescence Unit (RLU) reading of about 1.5E7 and the response curve between 0 and 600 pmol is fitted to a polynomial function (see for example FIG. 2).
The UDP-Glo™ reagents are made up and used according to the manufacturer's instructions. Thus, Nucleotide Detection Buffer and ATP are combined to make nucleotide detection reagent (NDR) dispensed into aliquots and frozen to be freshly thawed before use.
Km and kcat values in respect of UDP-glucose are derived by carrying out experiments to measure initial rates over a suitable range of concentrations of UDP glucose out at a fixed near saturating concentration of acceptor substrate. Best fit values of kcat, Km and kcat/Km are obtained by direct fitting of the data to the Michaelis-Menten equation using Graphpad Prism™ software.
DNA sequences, optimized for E. coli codon usage, corresponding to SEQ IDs 1-15, encoding BX8 and BX9 orthologue polypeptides derived from a range of species (as depicted in FIG. 1) were synthesized by Genewiz (South Plainfield, USA) with 5′ NdeI and 3′ XhoI restriction sites. The various orthologues were synthesized with either a N-terminal 6×His purification tag or C-terminal 6×His purification tag (i.e. tried both ways to achieve best expression of activity) and cloned into the E. coli expression plasmid pET24a (Novagen) via the NdeI and XhoI restriction sites. Expression, purification and assay was as described in Example 1.
Assays were carried out as described in Example 1. Partly purified C-terminally his tagged w/t Larkspur enzyme (SEQ ID No 10 with a 6 amino acid C-terminal tag) catalyzed glucosyl transfer to herbicide V at a rate estimated to be about 0.0065/s/pmol at 1 mM herbicide V. The similarly-tagged w/t bx-like enzymes from rye (SEQ ID No 11) and from wheat (SEQ ID No 4) were also active but only at levels close to the detection limit at ˜0.0015/s/pmol. Further examples of assay results from further experiments are depicted in Table 14. All of the proteins were C-terminally his tagged versions of the sequences referenced except for the Zea mays bx8 SEQ ID NO: 2 which was N-terminally his tagged.

[2] = tested on: transgenic tobacco plants expressing zmBX8 (SEQ ID No 2); experiment: Glass house spray test on tobacco, percent damage; assay type: in vivo; conditions: 30 g/ha
Description: In the present example, Zea mays BX8 or BX9 or orthologues of BX8/9, for example SEQ ID Nos. 1-59 and various herbicide-active mutations and combinations of mutations thereof (e.g. as listed in Tables 1-9) are expressed in transgenic tobacco. DNA sequences that encode these polypeptides (optimized for tobacco or, optionally, codon optimized according to a target crop such as soybean) are prepared synthetically and obtained commercially from Genewiz (South Plainfield, USA). Each sequence is designed to include a 5′ fusion with TMV omega 5′ leader (SEQ ID NO: 109). The DNA sequences are flanked at the 5′ end with XhoI and at the 3′ end with KpnI to facilitate direct cloning into a suitable binary vector for Agrobacterium-based plant transformation. […]
Three transgenic populations of about forty tobacco plants and comprising, a glucosyl transferase gene encoding either zmBX8 (SEQ ID NO 2) or zmBX9 (SEQ ID NO 1) were thus produced. […] Plants were assessed for damage and scored at 7 and 14 days after treatment (DAT).

[3] = tested on: non-transgenic w/t Zea mays seedlings; experiment: LC/MS of foliar extracts after herbicide treatment; assay type: in vivo; conditions: 24 and 48 h after treatment, 80% acetonitrile/water extract
Description: (§1) The expected glucosides of herbicides V and VI corresponding to those seen in vitro are also similarly produced in transgenic […] plants expressing Zea mays BX9 or expressing mutant derivatives of Zea mays BX9. For example, LC/MS analysis of extracts of leaves obtained by maceration and extraction into 80% acetonitrile/water 24 and 48 h after treatment with herbicides V and VI indicate that the same beta-glucosides that are produced by the enzymes in vitro are produced in planta.

[4] = tested on: transgenic tobacco plants expressing SEQ ID NO1 or SEQ ID NO 17; experiment: LC/MS of foliar extracts after herbicide treatment; assay type: in vivo; conditions: 24 and 48 h after treatment, 80% acetonitrile/water extract
Description: as §1

Structure (SMILES)	rate of glucosyl transfer [1]	tolerance [2]	glucoside found in foliar extract [3]	glucoside found in foliar extract [4]
CN1CC(O)N(c2cc(C(F)(F)F)ccn2)C1=O (stereo not shown) [Compound V]	about 0.0065 /s/pmol			
CON1C(=O)N(c2cc(C(F)(F)F)ccn2)C(O)[C@@H]1C (stereo partly shown) [Compound VI]		little or no tolerance	the S-beta stereoisomer O-glucoside product of VI	mainly the S-beta stereoisomer O-glucoside product of VI
